Measurements published in ChEMBL document CHEMBL1129561 (J Med Chem, 1996).

How the values were obtained:
Glucocorticoid receptor [1] = target: T1, Glucocorticoid receptor (Homo sapiens, UniProt P04150)
T1 sequence (P04150 whole entry): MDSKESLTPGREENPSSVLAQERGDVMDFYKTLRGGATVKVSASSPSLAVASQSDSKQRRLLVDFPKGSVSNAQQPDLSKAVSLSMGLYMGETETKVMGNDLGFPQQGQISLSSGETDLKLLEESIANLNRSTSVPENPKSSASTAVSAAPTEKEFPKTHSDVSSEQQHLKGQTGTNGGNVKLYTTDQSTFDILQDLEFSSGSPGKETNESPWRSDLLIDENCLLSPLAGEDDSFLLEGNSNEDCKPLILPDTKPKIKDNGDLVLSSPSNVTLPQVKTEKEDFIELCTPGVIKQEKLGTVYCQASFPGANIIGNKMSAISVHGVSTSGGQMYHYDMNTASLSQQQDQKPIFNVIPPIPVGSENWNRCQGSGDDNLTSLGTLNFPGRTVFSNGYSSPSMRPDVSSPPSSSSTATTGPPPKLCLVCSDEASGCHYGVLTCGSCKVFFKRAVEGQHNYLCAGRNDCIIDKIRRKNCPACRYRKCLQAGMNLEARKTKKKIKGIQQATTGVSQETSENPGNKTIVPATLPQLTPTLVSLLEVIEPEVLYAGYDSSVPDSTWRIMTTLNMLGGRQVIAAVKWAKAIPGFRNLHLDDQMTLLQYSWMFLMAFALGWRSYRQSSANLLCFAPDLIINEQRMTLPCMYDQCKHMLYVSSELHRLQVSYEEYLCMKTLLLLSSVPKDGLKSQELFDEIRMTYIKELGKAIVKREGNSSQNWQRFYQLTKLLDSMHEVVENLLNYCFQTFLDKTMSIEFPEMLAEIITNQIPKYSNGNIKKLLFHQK
Description: Binding affinity was determined for human glucocorticoid receptor(hGR).

Estrogen receptor [2] = target: T2, Estrogen receptor (Homo sapiens, UniProt Q92731+P03372)
Description: Inhibitory activity against human estrogen receptor

Glucocorticoid receptor [3] = target: T1, Glucocorticoid receptor; assay: Inhibitory activity against human glucocorticoid receptor (hGR)
Progesterone receptor [4] = target: T3, Progesterone receptor (Homo sapiens, UniProt P06401)
T3 sequence (P06401 whole entry): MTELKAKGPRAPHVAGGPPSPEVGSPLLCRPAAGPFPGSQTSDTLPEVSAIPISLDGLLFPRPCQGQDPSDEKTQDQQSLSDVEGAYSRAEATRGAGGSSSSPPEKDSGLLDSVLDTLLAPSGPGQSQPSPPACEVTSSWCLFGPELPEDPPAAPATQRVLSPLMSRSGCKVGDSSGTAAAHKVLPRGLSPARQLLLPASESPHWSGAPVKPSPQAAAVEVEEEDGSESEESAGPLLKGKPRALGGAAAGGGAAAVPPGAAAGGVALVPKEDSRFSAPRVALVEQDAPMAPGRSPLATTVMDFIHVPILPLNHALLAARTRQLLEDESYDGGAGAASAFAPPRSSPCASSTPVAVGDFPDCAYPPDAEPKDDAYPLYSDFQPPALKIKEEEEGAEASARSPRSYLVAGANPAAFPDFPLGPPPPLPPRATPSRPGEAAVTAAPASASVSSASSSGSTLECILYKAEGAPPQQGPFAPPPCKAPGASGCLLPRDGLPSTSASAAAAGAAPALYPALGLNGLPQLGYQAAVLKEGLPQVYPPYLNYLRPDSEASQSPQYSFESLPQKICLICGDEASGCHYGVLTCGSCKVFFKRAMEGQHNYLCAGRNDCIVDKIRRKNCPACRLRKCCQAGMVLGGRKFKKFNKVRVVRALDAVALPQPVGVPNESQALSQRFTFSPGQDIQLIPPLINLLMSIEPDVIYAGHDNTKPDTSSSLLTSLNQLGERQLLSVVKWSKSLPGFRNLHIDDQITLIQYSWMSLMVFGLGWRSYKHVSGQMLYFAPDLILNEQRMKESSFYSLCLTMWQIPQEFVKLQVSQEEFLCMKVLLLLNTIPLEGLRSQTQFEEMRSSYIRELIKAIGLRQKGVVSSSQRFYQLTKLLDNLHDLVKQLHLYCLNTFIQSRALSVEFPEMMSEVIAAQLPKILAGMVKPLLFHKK

[5] = target: T4, Mineralocorticoid receptor (Homo sapiens, UniProt P08235); assay: Inhibitory activity against human mineralocorticoid receptor (hMR)
T4 sequence (P08235 whole entry): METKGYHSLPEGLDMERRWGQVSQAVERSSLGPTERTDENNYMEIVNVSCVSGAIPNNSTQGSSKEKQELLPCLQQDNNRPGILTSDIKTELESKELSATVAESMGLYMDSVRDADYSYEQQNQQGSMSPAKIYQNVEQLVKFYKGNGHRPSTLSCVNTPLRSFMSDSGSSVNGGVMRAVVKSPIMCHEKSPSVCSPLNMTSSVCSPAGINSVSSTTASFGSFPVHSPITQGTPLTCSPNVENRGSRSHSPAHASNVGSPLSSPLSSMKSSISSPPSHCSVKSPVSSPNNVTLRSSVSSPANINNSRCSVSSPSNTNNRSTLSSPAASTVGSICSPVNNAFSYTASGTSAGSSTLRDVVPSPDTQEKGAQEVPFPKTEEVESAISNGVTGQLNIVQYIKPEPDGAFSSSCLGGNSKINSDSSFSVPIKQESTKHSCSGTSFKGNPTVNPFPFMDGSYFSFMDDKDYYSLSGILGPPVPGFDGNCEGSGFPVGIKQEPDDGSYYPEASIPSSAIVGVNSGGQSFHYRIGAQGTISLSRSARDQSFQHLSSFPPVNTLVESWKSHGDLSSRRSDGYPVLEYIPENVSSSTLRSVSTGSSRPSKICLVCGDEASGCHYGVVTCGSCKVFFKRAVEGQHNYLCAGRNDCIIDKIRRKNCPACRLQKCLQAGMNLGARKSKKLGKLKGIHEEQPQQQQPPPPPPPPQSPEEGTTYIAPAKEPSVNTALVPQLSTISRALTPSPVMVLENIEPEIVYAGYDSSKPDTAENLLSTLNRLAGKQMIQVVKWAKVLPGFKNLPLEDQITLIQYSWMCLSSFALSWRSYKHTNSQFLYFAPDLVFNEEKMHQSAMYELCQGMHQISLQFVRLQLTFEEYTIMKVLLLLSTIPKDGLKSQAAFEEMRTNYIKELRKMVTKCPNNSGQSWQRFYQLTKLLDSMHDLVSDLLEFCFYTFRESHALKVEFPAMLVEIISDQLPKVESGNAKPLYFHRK

Estrogen receptor [6] = target: T2, Estrogen receptor; remark: listed apart in the source
Description: Binding affinity for human estrogen receptor

Progesterone receptor [7] = target: T3, Progesterone receptor; remark: listed apart in the source
Progesterone receptor [8] = target: T3, Progesterone receptor; remark: listed apart in the source
[9] = target: T5, Progesterone receptor (Homo sapiens) (UniProt P06401); settings: CV-1
T5 sequence (whole entry): T3 sequence (P06401 whole entry)

Glucocorticoid receptor [10] = target: T1, Glucocorticoid receptor; assay: Binding affinity against human glucocorticoid receptor(hGR).
Androgen receptor [11] = target: T6, Androgen receptor (Homo sapiens, UniProt P10275)
T6 sequence (P10275 whole entry): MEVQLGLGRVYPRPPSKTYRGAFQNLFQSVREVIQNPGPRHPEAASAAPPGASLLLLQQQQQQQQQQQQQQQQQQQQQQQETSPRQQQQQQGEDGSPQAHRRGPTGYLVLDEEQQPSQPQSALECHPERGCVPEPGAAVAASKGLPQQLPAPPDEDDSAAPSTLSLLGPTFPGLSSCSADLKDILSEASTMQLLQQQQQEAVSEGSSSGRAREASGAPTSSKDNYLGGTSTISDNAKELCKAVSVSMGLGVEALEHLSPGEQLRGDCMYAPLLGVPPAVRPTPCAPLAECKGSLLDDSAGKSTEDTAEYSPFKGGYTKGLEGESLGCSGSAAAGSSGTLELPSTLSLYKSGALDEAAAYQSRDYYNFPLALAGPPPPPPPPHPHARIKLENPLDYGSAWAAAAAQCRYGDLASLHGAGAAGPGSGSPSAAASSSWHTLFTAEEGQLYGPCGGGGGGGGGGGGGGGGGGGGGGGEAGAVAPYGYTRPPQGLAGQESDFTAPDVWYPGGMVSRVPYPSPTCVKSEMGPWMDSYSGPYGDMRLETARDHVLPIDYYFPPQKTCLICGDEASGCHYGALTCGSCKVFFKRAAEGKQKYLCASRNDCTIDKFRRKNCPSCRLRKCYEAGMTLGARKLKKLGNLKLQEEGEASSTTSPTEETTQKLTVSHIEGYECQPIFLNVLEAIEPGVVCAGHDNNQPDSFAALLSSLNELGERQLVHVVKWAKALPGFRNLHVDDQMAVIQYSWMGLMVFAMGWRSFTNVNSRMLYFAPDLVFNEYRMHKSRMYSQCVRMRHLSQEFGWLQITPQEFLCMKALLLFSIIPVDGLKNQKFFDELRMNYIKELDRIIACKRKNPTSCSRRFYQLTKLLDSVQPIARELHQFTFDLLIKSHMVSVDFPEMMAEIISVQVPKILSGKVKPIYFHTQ
Description: Inhibitory activity against human Androgen receptor

Progesterone receptor [12] = target: T3, Progesterone receptor; assay: Effective concentration against human Progesterone receptor B isoform expressed in CV-1 cells; assay type: cell-based
Androgen receptor [13] = target: T6, Androgen receptor; remark: listed apart in the source
Description: Binding affinity determined against human Androgen receptor

Androgen receptor [14] = target: T6, Androgen receptor; remark: listed apart in the source
Description: Binding affinity for human Androgen receptor

[15] = target: T5, Progesterone receptor (Homo sapiens); settings: CV-1; remark: listed apart in the source
[16] = target: T4, Mineralocorticoid receptor
Glucocorticoid receptor [17] = target: T1, Glucocorticoid receptor; remark: listed apart in the source

For `C=C1CCCC(C)(C)[C@H]1Cc1cc(OC)c(Br)cc1O`, the Ki (Glucocorticoid receptor [1]) was 1770 nM, the IC50 (Estrogen receptor [2]) was over 10000 nM and the IC50 (Glucocorticoid receptor [3]) was over 10000 nM. It also gave a Ki (Progesterone receptor [4]) of 218 nM, an IC50 [5] of 1500 nM and a Ki (Estrogen receptor [6]) of over 10000 nM. For the same molecule, the IC50 (Progesterone receptor [7]) was 741 nM, the IC50 (Progesterone receptor [8]) was 210 nM and the Max inhibition [9] was 94%.

In the case of `C=C1CC[C@@H](Br)C(C)(C)[C@H]1Cc1cc(OC)c(Br)cc1O`, the Ki (Glucocorticoid receptor [10]) is reported as 3210 nM, the IC50 (Androgen receptor [11]) is reported as 449 nM and the IC50 (Estrogen receptor [2]) is reported as over 10000 nM. The IC50 (Glucocorticoid receptor [3]) was over 10000 nM, the Ki (Progesterone receptor [4]) was 490 nM and the IC50 (Progesterone receptor [7]) was 549 nM. It also gave an IC50 (Progesterone receptor [8]) of 354 nM and a Max inhibition [9] of 83%.

Molecule `C=C1C=C(C)CC(C)(C)C1C/C=C/c1cc(OC)c(Br)cc1O` (stereo unspecified) has a Ki (Glucocorticoid receptor [1]) of 4420 nM, a Ki (Progesterone receptor [4]) of 84 nM and an EC50 (Progesterone receptor [12]) of 3300 nM. It also gave an IC50 (Progesterone receptor [8]) of 1600 nM, a Ki (Androgen receptor [13]) of 2320 nM and a Max inhibition [9] of 61%.

Work on `CN(C)c1ccc([C@H]2CC3(C)[C@@H](CC[C@]3(O)CCCO)[C@@H]3CCC4=CC(=O)CCC4=C32)cc1` (single isomer, unassigned) [ONAPRISTONE] yielded an IC50 (Androgen receptor [11]) of 269 nM, a Ki (Glucocorticoid receptor [1]) of 41.8 nM and an IC50 (Estrogen receptor [2]) of over 1000 nM. It also gave a Ki (Androgen receptor [14]) of over 100 nM, a Max inhibition [15] of 99% and an IC50 [16] of over 1000 nM. For the same molecule, the Ki (Estrogen receptor [6]) was under 20 nM and the IC50 (Glucocorticoid receptor [17]) was 27 nM.
